Patent US20220000117A1, “METHOD FOR CONTROLLING DISEASES IN SMALL GRAIN CEREALS, SEED OF SMALL GRAIN CEREALS, AND METHOD FOR SUPPRESSING LODGING DAMAGE IN SMALL GRAIN CEREALS” (KUMIAI CHEMICAL INDUSTRY CO., LTD., priority 2019, published 2022)

Legend:
[1] = test system: powdery mildew; assay: Test Example 9: control test of wheat powdery mildew, cup in greenhouse, inoculated, Norin No. 61 (Tables 10 to 14); format: in vivo, Blumeria graminis; parameters: key to Degree of Disease Occurrence: Σ(index×leaves)/(4×leaves investigated)×100; 0 = no disease, 100 = max
Experimental: (§1) Degree of Disease Occurrence=Σ(Index×Number of Leaves of Index)/(4×Number of Investigated Leaves)×100 (1)
Seed of wheat (variety: Norin No. 61) was used, and 100 ml of suspension waters each containing the compound shown in Table 10 at an amount shown in […] (synthesis was performed in accordance with a known method, a solution dissolved in DMSO or formulated 10% wettable powder was used) were prepared. The seed having a mass of 1 kg of wheat was mixed into the suspension water with a chemical treated amount shown in Table 10, and air-dried, and then, 5 seeds were sown in a plastic cup having a diameter of 6 cm containing river sand and managed in a greenhouse. In Comparative Examples, 20 ml of the suspension water of an active ingredient, which had been adjusted to have a concentration shown in Table 10, was sprayed in a frame of 45 cm×45 cm in which a pot of wheat seedlings was placed (corresponding to 1000 L/ha) 14 days after seeding. On day 14 after seeding, conidiospores of powdery mildew were sifted over leaves of wheat seedlings and inoculated onto the leaves (after the sprayed liquid was dried in the case of Comparative Examples), a lesion area ratio of powdery mildew in a first leaf was investigated 21 days after seeding according to the criteria in Table 1, and the degree of disease occurrence was calculated by the above calculation formula (1).

[2] = test system: septoria leaf blotch; assay: Test Example 10: control test of septoria leaf blotch of wheat, cup in greenhouse, inoculated, variety ARKEOS (Tables 15 to 19); format: in vivo, Septoria tritici
Experimental: as §1
Seed of wheat (variety: ARKEOS) was used, and 100 ml of suspension waters each containing the compound shown in Table 15 at an amount shown in Table 15 (synthesis was performed in accordance with a known method, a liquid dissolved in a small amount of DMSO or formulated 10% wettable powder was used) were prepared. Seed having a mass of 1 kg was mixed into the suspension water with a rate shown in Examples of Table 15, and air-dried, and then, 5 seeds were sown in a plastic cup having a diameter of 6 cm containing mixed soil of river sand and horticultural soil and managed in a greenhouse. In Comparative Examples, 20 ml of suspension water of an active ingredient, which had been adjusted to have a concentration shown in Table 15 to 19, was sprayed in a frame of 45 cm×45 cm in which a pot of wheat seedlings was placed (corresponding to 1000 L/ha) 14 days after seeding. On day 14 after seeding, a spore suspension in which conidiospores of septoria leaf blotch are suspended was sprayed and inoculated on leaves of wheat seedlings (after the sprayed liquid was dried in the case of Comparative Examples), a lesion area ratio of septoria leaf blotch in a second leaf was investigated approximately 35 days after seeding according to the criteria in Table 1, and the degree of disease occurrence was calculated by the above calculation formula (1).

[3] = Table 10 run, Foliage Treatment, spray 10 ppm (10 g/ha) day 14, first leaf, 21 days after seeding
[4] = Table 10 run, Foliage Treatment, spray 50 ppm (50 g/ha) day 14, first leaf, 21 days after seeding
[5] = Table 10 run, Foliage Treatment, spray 100 ppm (100 g/ha) day 14, first leaf, 21 days after seeding
[6] = Table 10 run, Seed Treatment 0.1 g/Seed 1 kg (10 g/ha), first leaf, 21 days after seeding
[7] = Table 10 run, Seed Treatment 0.5 g/Seed 1 kg (50 g/ha), first leaf, 21 days after seeding
[8] = Table 10 run, Seed Treatment 1 g/Seed 1 kg (100 g/ha), first leaf, 21 days after seeding
[9] = Table 11 run (different day), Foliage Treatment, spray 10 ppm (10 g/ha)
[10] = Table 11 run (different day), Foliage Treatment, spray 50 ppm (50 g/ha)
[11] = Table 11 run (different day), Seed Treatment 0.1 g/Seed 1 kg (10 g/ha)
[12] = Table 11 run (different day), Seed Treatment 0.5 g/Seed 1 kg (50 g/ha)
[13] = Table 13 run (different day), Foliage Treatment, spray 10 ppm (10 g/ha)
[14] = Table 13 run (different day), Foliage Treatment, spray 50 ppm (50 g/ha)
[15] = Table 13 run (different day), Seed Treatment 0.1 g/Seed 1 kg (10 g/ha)
[16] = Table 13 run (different day), Seed Treatment 0.5 g/Seed 1 kg (50 g/ha)
[17] = Table 13 run (different day), Foliage Treatment, spray 5 ppm (5 g/ha)
[18] = Table 13 run (different day), Seed Treatment 0.05 g/Seed 1 kg (5 g/ha)
[19] = Table 17, Foliage Treatment, spray 10 ppm suspension water (corresponding to 10 g/ha) 14 days after seeding, untreated 50.0
[20] = Table 17, Foliage Treatment, spray 10 ppm suspension water (corresponding to 10 g/ha) 14 days after seeding, untreated 100.0
[21] = Table 17, Foliage Treatment, spray 100 ppm suspension water (corresponding to 100 g/ha) 14 days after seeding, untreated 50.0
[22] = Table 17, Foliage Treatment, spray 100 ppm suspension water (corresponding to 100 g/ha) 14 days after seeding, untreated 100.0
[23] = Table 17, Seed Treatment, 0.1 g/Seed 1 kg (corresponding to 10 g/ha), untreated 50.0
[24] = Table 17, Seed Treatment, 0.1 g/Seed 1 kg (corresponding to 10 g/ha), untreated 100.0
[25] = Table 17, Seed Treatment, 1 g/Seed 1 kg (corresponding to 100 g/ha), untreated 50.0
[26] = Table 17, Seed Treatment, 1 g/Seed 1 kg (corresponding to 100 g/ha), untreated 100.0
[27] = Table 17, Foliage Treatment, spray 50 ppm suspension water (corresponding to 50 g/ha) 14 days after seeding, untreated 50.0
[28] = Table 17, Foliage Treatment, spray 50 ppm suspension water (corresponding to 50 g/ha) 14 days after seeding, untreated 100.0
[29] = Table 17, Seed Treatment, 0.5 g/Seed 1 kg (corresponding to 50 g/ha), untreated 50.0
[30] = Table 17, Seed Treatment, 0.5 g/Seed 1 kg (corresponding to 50 g/ha), untreated 100.0
[31] = Table 10 run, Foliage Treatment, spray 5 ppm (5 g/ha) day 14, first leaf, 21 days after seeding
[32] = Table 10 run, Seed Treatment 0.05 g/Seed 1 kg (5 g/ha), first leaf, 21 days after seeding

Compound	Degree of Disease Occurrence [1, 10]	Disease Leaf Rate (%) [1, 10] [%]	Degree of Disease Occurrence [1, 12]	Disease Leaf Rate (%) [1, 12] [%]	Degree of Disease Occurrence [1, 13]	Disease Leaf Rate (%) [1, 13] [%]	Degree of Disease Occurrence [1, 14]	Disease Leaf Rate (%) [1, 14] [%]	Degree of Disease Occurrence [1, 15]	Disease Leaf Rate (%) [1, 15] [%]	Degree of Disease Occurrence [1, 16]	Disease Leaf Rate (%) [1, 16] [%]	Degree of Disease Occurrence [2, 21]	Disease Leaf Rate (%) [2, 22] [%]	Degree of Disease Occurrence [2, 25]	Disease Leaf Rate (%) [2, 26] [%]	other results
N#Cc1snc(Cl)c1Cl [Compound (2)]	–	–	–	–	–	–	–	–	–	–	–	–	–	–	–	–	Degree of Disease Occurrence [1, 3]: 59.4; Disease Leaf Rate (%) [1, 3]: 100.0%; Degree of Disease Occurrence [1, 4]: 56.3; Disease Leaf Rate (%) [1, 4]: 100.0%; Degree of Disease Occurrence [1, 5]: 47.9; Disease Leaf Rate (%) [1, 5]: 95.8%; Degree of Disease Occurrence [1, 6]: 45.9; Disease Leaf Rate (%) [1, 6]: 100.0%; Degree of Disease Occurrence [1, 7]: 41.0; Disease Leaf Rate (%) [1, 7]: 93.8%; Degree of Disease Occurrence [1, 8]: 28.9; Disease Leaf Rate (%) [1, 8]: 87.5%; Degree of Disease Occurrence ([2]; Table 16, Foliage Treatment, spray 100 ppm suspension water (corresponding to 100 g/ha) 14 days after seeding, untreated 57.1): 51.0; Disease Leaf Rate (%) ([2]; Table 16, Foliage Treatment, spray 100 ppm suspension water (corresponding to 100 g/ha) 14 days after seeding, untreated 93.3): 100.0%; Degree of Disease Occurrence ([2]; Table 16, Seed Treatment, 1 g/Seed 1 kg (corresponding to 100 g/ha), untreated 57.1): 37.5; Disease Leaf Rate (%) ([2]; Table 16, Seed Treatment, 1 g/Seed 1 kg (corresponding to 100 g/ha), untreated 93.3): 81.3%
CC(=O)OCc1snc(Cl)c1Cl [Compound (4)]	90.6	100	57.2	100	81.7	100.0	71.5	100.0	47.9	100.0	49.1	100.0	–	–	–	–	Degree of Disease Occurrence [1, 9]: 100.0; Disease Leaf Rate (%) [1, 9]: 100%; Degree of Disease Occurrence [1, 11]: 74.1; Disease Leaf Rate (%) [1, 11]: 100%
O=C(OCc1snc(Cl)c1Cl)c1ccccc1 [Compound (5)]	90.5	100	57.0	95	62.4	100.0	86.7	100.0	58.1	100.0	40.6	95.0	–	–	–	–	Degree of Disease Occurrence [1, 17]: 100.0; Disease Leaf Rate (%) [1, 17]: 100.0%; Degree of Disease Occurrence [1, 18]: 66.1; Disease Leaf Rate (%) [1, 18]: 100.0%
COC(=O)c1snc(Cl)c1Cl [Compound (7)]	94.8	100	78.8	100	–	–	77.1	100.0	–	–	61.3	100.0	50.0	93.3	19.4	77.5	Degree of Disease Occurrence [2, 19]: 41.7; Disease Leaf Rate (%) [2, 20]: 100.0%; Degree of Disease Occurrence [2, 23]: 22.5; Disease Leaf Rate (%) [2, 24]: 68.8%
CCOC(=O)c1snc(Cl)c1Cl [Compound (8)]	94.8	100	75.1	96.4	72.8	100.0	–	–	49.7	95.8	–	–	26.7	93.3	8.8	35.0	Degree of Disease Occurrence [1, 9]: 96.9; Disease Leaf Rate (%) [1, 9]: 100%; Degree of Disease Occurrence [1, 11]: 80.2; Disease Leaf Rate (%) [1, 11]: 100%; Degree of Disease Occurrence ([2]; Table 17, Foliage Treatment, spray 5 ppm suspension water (corresponding to 5 g/ha) 14 days after seeding, untreated 50.0): 38.3; Disease Leaf Rate (%) ([2]; Table 17, Foliage Treatment, spray 5 ppm suspension water (corresponding to 5 g/ha) 14 days after seeding, untreated 100.0): 100.0%; Degree of Disease Occurrence [2, 27]: 31.7; Disease Leaf Rate (%) [2, 28]: 100.0%; Degree of Disease Occurrence ([2]; Table 17, Seed Treatment, 0.05 g/Seed 1 kg (corresponding to 5 g/ha), untreated 50.0): 23.8; Disease Leaf Rate (%) ([2]; Table 17, Seed Treatment, 0.05 g/Seed 1 kg (corresponding to 5 g/ha), untreated 100.0): 90.0%; Degree of Disease Occurrence [2, 29]: 10.3; Disease Leaf Rate (%) [2, 30]: 36.3%
NC(=O)c1snc(Cl)c1Cl [Compound (9)]	–	–	–	–	–	–	–	–	–	–	–	–	–	–	–	–	Degree of Disease Occurrence [1, 31]: 57.3; Disease Leaf Rate (%) [1, 31]: 100.0%; Degree of Disease Occurrence [1, 3]: 63.5; Disease Leaf Rate (%) [1, 3]: 100.0%; Degree of Disease Occurrence [1, 32]: 38.3; Disease Leaf Rate (%) [1, 32]: 96.9%; Degree of Disease Occurrence [1, 6]: 33.0; Disease Leaf Rate (%) [1, 6]: 83.9%
COC(=N)c1snc(Cl)c1Cl [Compound (11)]	97.9	100	79.7	100	72.6	98.4	67.6	99.6	50.1	95.0	40.8	100.0	41.7	100.0	26.5	67.5	Degree of Disease Occurrence [2, 19]: 31.7; Disease Leaf Rate (%) [2, 20]: 93.3%; Degree of Disease Occurrence [2, 27]: 35.0; Disease Leaf Rate (%) [2, 28]: 100.0%; Degree of Disease Occurrence [2, 23]: 22.5; Disease Leaf Rate (%) [2, 24]: 80.0%; Degree of Disease Occurrence [2, 29]: 18.8; Disease Leaf Rate (%) [2, 30]: 63.8%
